The results in this text go back to PubChem BioAssay AID651581 (Sanford-Burnham Center for Chemical Genomics, 2012).

Activity calls are given as the source filed them. How the calls were made is not given here. Where only a bound is given, the exact number is not on record here.

Test [1] deals with Endothelial PAS domain-containing protein 1 (Homo sapiens) (UniProt Q99814). Description: potency against HIF reporters across cell lines – luminescence, panel, selectivity assay for HIF-2a inhibitor project, dose response (AID 651581). As to conditions: human cell HIF reporter.
For test [2], the target named is Hypoxia-inducible factor 1-alpha (Homo sapiens) (UniProt Q16665). Described as above. Particulars: human cell HIF reporter, HIF-1a.
Hypoxia-inducible factor 1-alpha (Homo sapiens), sequence (Q16665 whole entry, looked up): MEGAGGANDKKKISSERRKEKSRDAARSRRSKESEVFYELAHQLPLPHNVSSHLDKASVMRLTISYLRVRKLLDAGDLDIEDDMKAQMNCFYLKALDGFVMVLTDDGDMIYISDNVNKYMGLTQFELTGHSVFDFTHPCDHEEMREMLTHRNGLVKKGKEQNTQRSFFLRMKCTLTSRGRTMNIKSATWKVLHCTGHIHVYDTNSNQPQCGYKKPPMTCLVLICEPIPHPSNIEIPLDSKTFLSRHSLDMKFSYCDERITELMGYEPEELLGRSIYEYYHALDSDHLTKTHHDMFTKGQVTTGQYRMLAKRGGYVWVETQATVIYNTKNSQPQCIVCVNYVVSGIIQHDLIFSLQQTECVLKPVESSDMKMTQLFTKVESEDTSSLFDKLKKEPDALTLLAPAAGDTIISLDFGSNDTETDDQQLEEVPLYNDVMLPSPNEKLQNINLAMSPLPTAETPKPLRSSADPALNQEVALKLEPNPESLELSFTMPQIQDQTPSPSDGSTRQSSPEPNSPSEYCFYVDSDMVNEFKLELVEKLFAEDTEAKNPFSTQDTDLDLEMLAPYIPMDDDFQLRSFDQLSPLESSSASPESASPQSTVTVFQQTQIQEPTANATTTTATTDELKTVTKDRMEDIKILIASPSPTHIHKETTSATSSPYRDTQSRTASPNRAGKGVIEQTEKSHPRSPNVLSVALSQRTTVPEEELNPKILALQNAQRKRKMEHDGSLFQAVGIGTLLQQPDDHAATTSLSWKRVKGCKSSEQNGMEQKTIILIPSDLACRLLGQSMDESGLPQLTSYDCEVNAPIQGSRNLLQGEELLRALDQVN

As a reminder, the IC50 is the concentration that gives 50% inhibition. Regarding `CCOC(=O)NC(=O)COC(=O)CCCSc1nc2ccccc2s1`, the IC50 is 11.3 µM in test [1] (HIF-2a PANC, mean of runs); 12 µM in test [1] (HIF-2a PANC, run 1); 10.7 µM in test [1] (HIF-2a PANC, run 2); 9.56 µM in test [1] (HIF-2a, mean of runs); 8.83 µM in test [1] (HIF-2a, run 1); 10.3 µM in test [1] (HIF-2a, run 2). Also, the IC50 worked out at 24.2 µM in test [2] (run 1) and 13.4 µM in test [2] (run 2). Further, in test [2] (mean of runs), the IC50 entry is “inactive”.
As for `C=CS(=O)(=O)c1sc(Cl)c(N2CCOCC2)c1[N+](=O)[O-]`, the IC50 was over 99 µM in test [1] (HIF-2a PANC, run 1); 15.5 µM in test [1] (HIF-2a PANC, run 2); 8.96 µM in test [1] (HIF-2a, mean of runs); 9.47 µM in test [1] (HIF-2a, run 1); 8.45 µM in test [1] (HIF-2a, run 2); 47.5 µM in test [2] (run 1). This molecule also yielded an IC50 in test [2] (run 2) of over 99 µM.
Consider `CSC(SC)=C(C#N)C(=O)c1ccccc1`, for which the IC50 is over 99 µM in test [1] (HIF-2a PANC, run 1); 77 µM in test [1] (HIF-2a PANC, run 2); 6.18 µM in test [1] (HIF-2a, mean of runs); 6.56 µM in test [1] (HIF-2a, run 1); 5.8 µM in test [1] (HIF-2a, run 2); 26.2 µM in test [2] (mean of runs). For the same molecule, the results for the IC50 in test [2] (run 1) and in test [2] (run 2) were 21.3 µM and 31.1 µM, respectively.
In the case of `CC(=O)Nc1ccc(OS(=O)(=O)c2c(C)cc(C)cc2C)cc1`, the IC50 in test [1] (HIF-2a PANC, mean of runs) was > 99 µM (inactive); in test [1] (HIF-2a PANC, run 1) it was over 99 µM; in test [1] (HIF-2a PANC, run 2), over 99 µM; in test [1] (HIF-2a, run 1) it was 12.5 µM; in test [1] (HIF-2a, run 2), 10.9 µM; in test [2] (mean of runs), 64.6 µM. For the same molecule, the IC50 in test [2] (run 1) was 80 µM; in test [2] (run 2), 49.2 µM. In addition, in test [1] (HIF-2a, mean of runs), the IC50 entry was “inactive”.
For `CCOc1cc(/C=N/Nc2cccc(C(=O)O)c2)ccc1OC(=O)c1ccccc1`, the IC50 in test [1] (HIF-2a PANC, run 1) is over 99 µM; in test [1] (HIF-2a PANC, run 2) it was 30.1 µM; in test [1] (HIF-2a, mean of runs), 4.22 µM; in test [1] (HIF-2a, run 1) it was 4.44 µM; in test [1] (HIF-2a, run 2) it was 4 µM; in test [2] (run 1), over 99 µM. Further, the IC50 in test [2] (run 2) is over 99 µM.
Turning to `O=C(Nc1ccc(Cl)cc1Cl)c1cccc(N2C(=O)C=CC2=O)c1`, the IC50 in test [1] (HIF-2a PANC, run 1) is over 99 µM; in test [1] (HIF-2a PANC, run 2), 28.1 µM; in test [1] (HIF-2a, mean of runs), 8.1 µM; in test [1] (HIF-2a, run 1) it was 7.79 µM; in test [1] (HIF-2a, run 2), 8.42 µM; in test [2] (mean of runs), 41.1 µM. Besides, the values for the IC50 in test [2] (run 1) and in test [2] (run 2) were 47.8 µM and 34.5 µM, respectively.
For `CC(C)(C)c1ccc(-c2noc(CCC(=O)Nc3cccnc3)n2)cc1`, the IC50 is under 0.3 µM in test [1] (HIF-2a PANC, mean of runs); under 1 µM in test [1] (HIF-2a PANC, run 1); under 0.3 µM in test [1] (HIF-2a PANC, run 2); under 1 µM in test [1] (HIF-2a, mean of runs); under 1 µM in test [1] (HIF-2a, run 1); under 1 µM in test [1] (HIF-2a, run 2). Further, the IC50 in test [2] (mean of runs) was 64.2 µM; in test [2] (run 1), 78.9 µM; in test [2] (run 2) it was 49.5 µM.
Take `CN(C)c1c([N+](=O)[O-])cc(N2C(=O)C=CC2=O)cc1[N+](=O)[O-]`: in test [1] (HIF-2a PANC, mean of runs), the IC50 result was “inactive”. The IC50 was 22.2 µM in test [1] (HIF-2a PANC, run 1); 41.7 µM in test [1] (HIF-2a PANC, run 2); 8.6 µM in test [1] (HIF-2a, mean of runs); 8.29 µM in test [1] (HIF-2a, run 1); 8.9 µM in test [1] (HIF-2a, run 2); 52.2 µM in test [2] (mean of runs). The IC50 in test [2] (run 1) was 63.9 µM; in test [2] (run 2), 40.5 µM.
`O=C(Nc1ccc(NC(=S)NC(=O)c2ccco2)cc1)c1ccc(Br)cc1`: the IC50 in test [1] (HIF-2a PANC, mean of runs) was > 99 µM (inactive); in test [1] (HIF-2a PANC, run 1), over 99 µM; in test [1] (HIF-2a PANC, run 2), over 99 µM; in test [1] (HIF-2a, mean of runs), 1.02 µM; in test [1] (HIF-2a, run 1), 1.18 µM; in test [1] (HIF-2a, run 2), 0.871 µM. For the same molecule, the IC50 is 0.639 µM in test [2] (run 1) and over 99 µM in test [2] (run 2).
In the case of `O=C(NNc1nc2ccccc2o1)c1ccccc1`, the IC50 was > 99 µM (inactive) in test [1] (HIF-2a PANC, mean of runs); over 99 µM in test [1] (HIF-2a PANC, run 1); over 99 µM in test [1] (HIF-2a PANC, run 2); 6.37 µM in test [1] (HIF-2a, mean of runs); 6.68 µM in test [1] (HIF-2a, run 1); 6.06 µM in test [1] (HIF-2a, run 2). For the same molecule, the IC50 is 46.1 µM in test [2] (run 1) and over 99 µM in test [2] (run 2).
As to `CCOC(=O)Cc1csc(NC(=S)NC(=O)c2ccccc2C)n1`, the IC50 was over 99 µM in test [1] (HIF-2a PANC, run 1); 49 µM in test [1] (HIF-2a PANC, run 2); 15 µM in test [1] (HIF-2a, run 1); 14.5 µM in test [1] (HIF-2a, run 2); 22.8 µM in test [2] (run 1); 37.2 µM in test [2] (run 2). Also, the IC50 result in test [1] (HIF-2a, mean of runs) is “inactive”; in test [2] (mean of runs), “inactive”.
For `N#Cc1c(NC(=O)CCCC(=O)O)sc2c1CCCCC2`, the IC50 is 0.417 µM in test [1] (HIF-2a PANC, mean of runs); 0.379 µM in test [1] (HIF-2a PANC, run 1); 0.455 µM in test [1] (HIF-2a PANC, run 2); 51.8 µM in test [1] (HIF-2a, run 1); under 0.19 µM in test [1] (HIF-2a, run 2); over 99 µM in test [2] (run 1). In addition, the IC50 in test [2] (run 2) was over 99 µM.
On to `COc1ccc(-n2nc3ccc(N)cc3n2)cc1`, for which the IC50 in test [1] (HIF-2a PANC, mean of runs) is 2.26 µM; in test [1] (HIF-2a PANC, run 1), 3.23 µM; in test [1] (HIF-2a PANC, run 2), 1.3 µM; in test [1] (HIF-2a, run 1) it was 7.4 µM; in test [1] (HIF-2a, run 2) it was 14.9 µM; in test [2] (mean of runs) it was 43.5 µM. The IC50 amounted to 24.9 µM in test [2] (run 1) and 62.1 µM in test [2] (run 2). Besides, in test [1] (HIF-2a, mean of runs), the IC50 result was “inactive”.
